Source: patent US8742082B2, “Compositions and methods for influencing satiety, lipid metabolism, and fat utilization” (Nestec S.A., priority 2008, dated 2014)

What was measured:
[1] = oral, over the 12 first hours; cited from earlier work
[2] = tested on: Fatty acid transporter/cluster of differentiation 36 (FAT/CD 36); assay: Real-time PCR gene expression in peripheral tissues: FAT/CD36; format: in vivo; conditions: C57bl6j mice, high fat diet, 100 mg/kg/body weight in diet, 5 weeks
Experimental: (§1) The expression of 45 genes was measured by real-time PCR in peripheral tissues to identify genes that were differentially expressed in response to oral administration of oleoylethanolamide (OEA) or a non-hydrolysable OEA analog (KDS 5104), which affect satiety, lipid metabolism, fat utilization, food intake, and body fat mass.
(§2) Animals, diet, and experimental design. Adult male C57bl6j mice purchased at 8 weeks of age were individually housed and maintained ad libitum on high fat diet and water for 2 weeks. Seven mice were randomly allocated in 3 groups and fed with a high fat diet (lipids represented 50% of daily energy) for 2 weeks. For one kilogram, the composition of the high fat diet was: 235 g casein, 201 g saccharose, 3.5 g L-cystine, 85 g starch, 116 g maltodextrin, 60 g cellulose, 12 g vitamins mix (AIN-93M, UPAE, Jouy-en-Josas, France), 51.5 g mineral mix (AIN-93Vx, UPAE, Jouy-en-Josas, France), and 236 g lard. Then, either OEA or KDS 5104 was added to the diet at a concentration of 100 mg/kg/body weight. The mice were kept under treatment for 5 weeks.
(§3) Sampling. At the end of the experimental period, mice were sacrificed by blood drawing (cardiac puncture) after anesthesia with isoflurane. Plasma was obtained by centrifugation (1,000 g for 10 min at 4° C.). Mesenteric, epididymal, inguinal and peritoneal adipose depots, as well as liver, stomach, small intestine mucosa, pancreas, and gastrocnemian muscle were removed and frozen into liquid nitrogen. Plasma, urine, feces, and organ samples were kept at −80° C. until analysis.
(§4) RNA extraction and gene expression. Total RNA from liver, intestine mucous membrane, adipose tissues, gastrocnemian muscle, pancreas and stomach were extracted with TRIzol reagent (Invitrogen, Carlsbad, USA) according to the manufacturer's instruction. The RNA concentration was determined on nanodrop from the absorbance at 260 nm. Retro-transcription PCRs to synthesize cDNA were performed using an Applied Biosystem Thermal Cycler 2720 and Superscript II (Invitrogen, Carlsbad, USA) according to manufacturer's protocol. Real-time quantitative PCR (RT-qPCR) were performed on cDNA obtained as described above using a high through put system (Biomek 3000, Beckman & Coulter, Fullerton, USA) and a Lightcycler 480 (Roche/Hitachi, Basel, Switzerland) with SYBR Green Master mix+kit (Eurogentec, Philadelphia, USA). Primers for the selected genes were generated using online informatics assistance from the Lightcycler manufacturer (Roche). Databases used to identify the genes were (1) the NCBI database (GenBank) and (2) the IHOP (Information Hyperlinked over Protein) database (www.ihop-net.org/UniPub/iHOP/bng/). Values were expressed as ratio of RNA levels relative to control mice (diets with 0 mg of OEA/kg/body weight) using ΔΔ(Ct) (Livak K J & Schmittgen T D, 2001, Methods 25:402-8). Gene expression of the following genes was measured (abbreviation and GenBank Accession shown in parentheses).
Statistical analysis. Results are presented as means±standard error of the means (SEM). Statistical analysis of physiological parameters and gene expression data was performed by one-way ANOVA on Statview software (SAS Institute, Cary, USA). Daily food intake was analyzed using two-way ANOVA on Statview software. Statistical significance was set up at the P<0.05 level, the P<0.01 level and the P<0.001 level. For statistical analysis of the gene expression data, values were calculated relative to 18S expression for each mouse and gene.

Adiponectin = assay: Real-time PCR gene expression in peripheral tissues: adiponectin; format: in vivo; conditions: C57bl6j mice, high fat diet, 100 mg/kg/body weight in diet, 5 weeks
Experimental: as §1, §2, §3
as §4, with “Retro-transcription PCRs to synthesize cDNA were performed using an Applied Biosystem Thermal Cycler 2720 and Superscript II (Invitrogen, Carlsbad, USA) according to manufacturer's protocol.” left out, “Primers for the selected genes were generated using online informatics assistance from the Lightcycler manufacturer (Roche). Databases used to identify the genes were (1) the NCBI database (GenBank) and (2) the IHOP (Information Hyperlinked over Protein) database (www.ihop-net.org/UniPub/iHOP/bng/).” left out
Statistical analysis. […] Daily food intake was analyzed using two-way ANOVA on Statview software. […] For statistical analysis of the gene expression data, values were calculated relative to 18S expression for each mouse and gene.

[3] = tested on: Oleoylethanolamide synthase (OEA synthase); assay: Real-time PCR gene expression in peripheral tissues: OEA synthase; format: in vivo; conditions: proximal intestine; C57bl6j mice, high fat diet, 100 mg/kg/body weight in diet, 5 weeks
Experimental: as §1
(§5) Animals, diet, and experimental design. Adult male C57bl6j mice purchased at 8 weeks of age were individually housed and maintained ad libitum on high fat diet and water for 2 weeks. Seven mice were randomly allocated in 3 groups and fed with a high fat diet (lipids represented 50% of daily energy) for 2 weeks. […]
(§6) RNA extraction and gene expression. […] The RNA concentration was determined on nanodrop from the absorbance at 260 nm. […] Real-time quantitative PCR (RT-qPCR) were performed on cDNA obtained as described above using a high through put system (Biomek 3000, Beckman & Coulter, Fullerton, USA) and a Lightcycler 480 (Roche/Hitachi, Basel, Switzerland) with SYBR Green Master mix+kit (Eurogentec, Philadelphia, USA). […] Values were expressed as ratio of RNA levels relative to control mice (diets with 0 mg of OEA/kg/body weight) using ΔΔ(Ct) (Livak K J & Schmittgen T D, 2001, Methods 25:402-8). Gene expression of the following genes was measured (abbreviation and GenBank Accession shown in parentheses). […]

AcylCoA oxidase (ACO) = assay: Real-time PCR gene expression in peripheral tissues: ACO; format: in vivo; conditions: liver; C57bl6j mice, high fat diet, 100 mg/kg/body weight in diet, 5 weeks
Experimental: as §1, §5, §6

[4] = tested on: Protein convertase subtilisin/kexin type 9 (PCSK 9); assay: Real-time PCR gene expression in peripheral tissues: PCSK9; format: in vivo; conditions: liver; C57bl6j mice, high fat diet, 100 mg/kg/body weight in diet, 5 weeks
Experimental: as §1, §5, §6

[5] = tested on: G protein coupled receptor 119 (GPR 119); assay: Real-time PCR gene expression in peripheral tissues: GPR119; format: in vivo; conditions: proximal intestine; C57bl6j mice, high fat diet, 100 mg/kg/body weight in diet, 5 weeks
Experimental: as §1, §5, §6

[6] = tested on: N-acylsphingosine amidohydrolase-like (NAAA); assay: Real-time PCR gene expression in peripheral tissues: NAAA; format: in vivo; conditions: C57bl6j mice, high fat diet, 100 mg/kg/body weight in diet, 5 weeks
Experimental: as §1, §2, §3, §4
(§7) Statistical analysis. […] Statistical analysis of physiological parameters and gene expression data was performed by one-way ANOVA on Statview software (SAS Institute, Cary, USA). Daily food intake was analyzed using two-way ANOVA on Statview software. Statistical significance was set up at the P<0.05 level, the P<0.01 level and the P<0.001 level. For statistical analysis of the gene expression data, values were calculated relative to 18S expression for each mouse and gene.

Ghrelin = assay: Real-time PCR gene expression in peripheral tissues: ghrelin; format: in vivo; conditions: stomach; C57bl6j mice, high fat diet, 100 mg/kg/body weight in diet, 5 weeks
Experimental: as §1, §5, §6

[7] = tested on: Glucose 6-phosphatase (G6P); assay: Real-time PCR gene expression in peripheral tissues: G6P; format: in vivo; conditions: liver; C57bl6j mice, high fat diet, 100 mg/kg/body weight in diet, 5 weeks
Experimental: as §1, §5, §6

Leptin = assay: Real-time PCR gene expression in peripheral tissues: leptin; format: in vivo; conditions: C57bl6j mice, high fat diet, 100 mg/kg/body weight in diet, 5 weeks
Experimental: as §1, §2, §3, §4, §7

[8] = tested on: Fasting induced adipocyte factor (Fiaf); assay: Real-time PCR gene expression in peripheral tissues: Fiaf; format: in vivo; conditions: C57bl6j mice, high fat diet, 100 mg/kg/body weight in diet, 5 weeks
Experimental: as §1, §2, §3, §4, §7

CCCCCCCC/C=C\CCCCCCCC(=O)NCCO [OEA, N-oleoyl-ethanolamide]
food intake after acute gavage [1]: decrease significantly | FAT/CD36 at ep, ratio of RNA levels relative to control mice ([2]; epidydimal adipose tissue): −1.88 | FAT/CD36 l, ratio of RNA levels relative to control mice ([2]; liver): 1.45 | FAT/CD36 at per, ratio of RNA levels relative to control mice ([2]; peritoneal adipose tissue): −1.81 | FAT/CD36 i, ratio of RNA levels relative to control mice ([2]; proximal intestine): 1.61 | adiponectin at ep, ratio of RNA levels relative to control mice (Adiponectin; epidydimal adipose tissue): −1.14 | adiponectin at per, ratio of RNA levels relative to control mice (Adiponectin; peritoneal adipose tissue): −2.08 | OEA synthase i, ratio of RNA levels relative to control mice [3]: −1.38 | ACO l, ratio of RNA levels relative to control mice (AcylCoA oxidase (ACO)): 1.06 | PCSK9 l, ratio of RNA levels relative to control mice [4]: 1.44 | GPR119 i, ratio of RNA levels relative to control mice [5]: 1.97 | NAAA at ep, ratio of RNA levels relative to control mice ([6]; epidydimal adipose tissue): 1.36 | NAAA at per, ratio of RNA levels relative to control mice ([6]; peritoneal adipose tissue): 1.03 | NAAA i, ratio of RNA levels relative to control mice ([6]; proximal intestine): 1.85 | ghrelin s, ratio of RNA levels relative to control mice (Ghrelin): 1.98 | G6P l, ratio of RNA levels relative to control mice [7]: 1.29 | leptin at ep, ratio of RNA levels relative to control mice (Leptin; epidydimal adipose tissue): 1.22 | leptin at per, ratio of RNA levels relative to control mice (Leptin; peritoneal adipose tissue): 3.44 | leptin s, ratio of RNA levels relative to control mice (Leptin; stomach): 1.41 | Fiaf at ep, ratio of RNA levels relative to control mice ([8]; epidydimal adipose tissue): −1.41 | Fiaf at per, ratio of RNA levels relative to control mice ([8]; peritoneal adipose tissue): −2.42 | Fiaf i, ratio of RNA levels relative to control mice ([8]; proximal intestine): 1.15
